Assay results as given in patent US9708274B2, “Sulfoximine substituted quinazolines for pharmaceutical compositions” (EVOTEC INTERNATIONAL GMBH, priority 2013, dated 2017).

Key:
[1] = test system: cell culture cells, transfected with MNK2 (MNK2a or MNK2b) or MNK1; settings: addition to cell culture cells transfected with MNK2 (MNK2a or MNK2b) or MNK1; cited from earlier work
MNK1a = MNK1a (Homo sapiens (Human), UniProt Q9BUB5); experiment: MNK1 in vitro kinase assay (Assay 3), Z'-LYTE; type: biochemical; settings: compound concentration of 1 μM
Sequence of MNK1a (Q9BUB5 other isoform, or with tags, fused parts or gaps): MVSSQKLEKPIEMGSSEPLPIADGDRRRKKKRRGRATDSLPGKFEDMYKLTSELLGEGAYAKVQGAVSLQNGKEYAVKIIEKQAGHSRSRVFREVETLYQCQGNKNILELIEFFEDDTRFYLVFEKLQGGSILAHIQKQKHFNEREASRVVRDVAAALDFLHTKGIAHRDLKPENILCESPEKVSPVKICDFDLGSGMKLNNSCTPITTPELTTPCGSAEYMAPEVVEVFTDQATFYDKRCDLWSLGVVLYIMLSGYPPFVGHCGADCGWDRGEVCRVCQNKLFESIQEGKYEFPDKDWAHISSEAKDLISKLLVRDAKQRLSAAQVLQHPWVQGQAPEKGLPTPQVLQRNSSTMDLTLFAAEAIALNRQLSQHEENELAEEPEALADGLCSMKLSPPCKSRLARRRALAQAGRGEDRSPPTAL
Text: C. MNK1 In Vitro Kinase Assay (Assay 3)
MNK1 Data can be obtained from the MNK1 Z′-LYTE® assay. The MNK1 Z′-LYTE® screening protocol and assay conditions are also described on www.invitrogen.com.
The assay is described as follows:
The Z′-LYTE® biochemical assay employs a fluorescence-based, coupled-enzyme format and is based on the differential sensitivity of phosphorylated and non-phosphorylated peptides to proteolytic cleavage. The peptide substrate is labeled with two fluorophores—one at each end—that make up a FRET pair.
In the primary reaction, the kinase transfers the gamma-phosphate of ATP to a single tyrosine, serine or threonine residue in a synthetic FRET-peptide. In the secondary reaction, a site-specific protease recognizes and cleaves non-phosphorylated FRET-peptides. Phosphorylation of FRET-peptides suppresses cleavage by the Development Reagent. […] A ratiometric method, which calculates the ratio (the Emission Ratio) of donor emission to acceptor emission after excitation of the donor fluorophore at 400 nm, is used to quantitate reaction progress, as shown in the equation below.
ASSAY SETUP: The inhibition of kinase activity of MNK1a was assessed using pre-activated GST-MNK1a. […]
9. Read on fluorescence plate reader and analyze the data […]

MNK2a = MNK2a (Homo sapiens (Human), UniProt Q9HBH9); experiment: MNK2a in vitro kinase assay (Assay 2), ADP-Glo; type: biochemical; settings: read-out: MNK2 IC50
Sequence of MNK2a (Q9HBH9 whole entry): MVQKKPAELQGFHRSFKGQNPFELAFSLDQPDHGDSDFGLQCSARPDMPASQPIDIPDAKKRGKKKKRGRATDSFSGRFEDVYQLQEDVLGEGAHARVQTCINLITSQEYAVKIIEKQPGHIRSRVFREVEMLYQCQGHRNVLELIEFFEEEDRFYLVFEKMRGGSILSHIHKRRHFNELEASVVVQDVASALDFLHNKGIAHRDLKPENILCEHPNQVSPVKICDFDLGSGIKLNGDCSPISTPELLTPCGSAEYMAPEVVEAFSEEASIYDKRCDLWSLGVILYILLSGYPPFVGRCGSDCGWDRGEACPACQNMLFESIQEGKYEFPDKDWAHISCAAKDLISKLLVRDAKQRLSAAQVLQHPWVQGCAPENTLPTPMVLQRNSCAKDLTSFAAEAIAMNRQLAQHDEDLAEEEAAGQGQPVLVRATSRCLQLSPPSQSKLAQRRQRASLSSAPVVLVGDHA
Experimental: The white, 384-well OptiPlate F plates were purchased from PerkinElmer. The ADP-Glo Kinase Assay (including ultra pure ATP) was purchased from Promega (V9103). Activated MNK2a was obtained as described in WO2011/104340. […] All other materials were of highest grade commercially available. Compounds are tested in either serial dilutions or single dose concentrations. The compound stock solutions are 10 mM in 100% DMSO The serial compound dilutions are prepared in 100% DMSO followed by 1:27.3 intermediate dilution in assay buffer. The final DMSO concentration in assay will be <3%.
In the 384-well plates 3 μl of test compound from the intermediate dilution is mixed with 4 μl of the activated MNK2 enzyme (final concentration of 10 nM) and 4 μl of the peptide (final concentration of 25 μM)/ultra pure ATP (final concentration of 20 μM), all dissolved in assay buffer. This step is followed by an incubation time of 90 min, then 10 μl of ADP Glo reagent are added, followed by 40 min of incubation. Then 20 μl of kinase detection reagent are admixed. The plates are sealed and after an incubation period of 30 min, the luminescence signal is measured in an Envision reader to determine the amount of produced ADP. All incubation steps are performed at room temperature. […]
IC50 values based on dose response curves are calculated with the AssayExplorer software.

**Q.** For Nc1ncnc2n[nH]c(Nc3ccc(F)cc3)c12 [CGP57380], which “reduction of phosphorylated eIF4E” value [1] is on record?
**A.** strong reduction of phosphorylated eIF4E

**Q.** With C[C@H](NC(=O)[C@@H](C)Oc1cc(F)ccc1Nc1ncnc2cc(N=S3(=O)CCC3)cc(F)c12)C(F)(F)F [Example 4.136] as the compound, how does the “MNK1 % INH” value (MNK1a) read?
**A.** 93%

**Q.** Which IC50 (MNK2a) does the source give for C[C@@H](Oc1cc(F)ccc1Nc1ncnc2cc(N=S3(=O)CCC3)cc(F)c12)C(=O)NCCC(F)(F)F [Example 4.108] here?
**A.** 2 nM
